Source: PubChem BioAssay (NCI)
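48-hour exposure; five concentrations; linearly interpolated endpoints. TGI is the concentration that stops growth completely.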

Legend:
Assay in all cases: NCI anticancer screen, dose series, 48 h
786-0 renal = tested on: 786-0 renal
DMS 273 small cell lung = tested on: DMS 273 small cell lung
HT29 colon = tested on: HT29 colon
K-562 leukemia = tested on: K-562 leukemia
OVCAR-8 ovarian = tested on: OVCAR-8 ovarian
SF-539 CNS = tested on: SF-539 CNS
SW-620 colon = tested on: SW-620 colon
BT-549 breast = tested on: BT-549 breast
MCF7 breast = tested on: MCF7 breast
SNB-19 CNS = tested on: SNB-19 CNS
KM20L2 colon = tested on: KM20L2 colon
SNB-78 CNS = tested on: SNB-78 CNS

Row | Structure (SMILES) | TGI (786-0 renal) [µM] | TGI (DMS 273 small cell lung) [µM] | TGI (HT29 colon) [µM] | TGI (K-562 leukemia) [µM] | TGI (OVCAR-8 ovarian) [µM] | TGI (SF-539 CNS) [µM] | TGI (SW-620 colon) [µM] | TGI (BT-549 breast) [µM] | TGI (MCF7 breast) [µM] | TGI (SNB-19 CNS) [µM] | TGI (KM20L2 colon) [µM] | TGI (SNB-78 CNS) [µM]
1 | COc1ccc(C2S/C(=C\c3cccc([N+](=O)[O-])c3)C(=O)N2NC(=O)Cc2ccccc2)cc1 (configuration not stated) | > 100 | > 100 | > 100 | > 100 | > 100 | > 100 | > 100 |  |  |  |  | 
2 | CC[C@@H]1C[C@@H](O)[C@@H]2[C@H](O)[C@H](O)CN2C1 | > 100 |  | > 100 | > 100 | > 100 | > 100 | > 100 | > 100 | > 100 | > 100 |  | 
3 | Cc1ccc2nc(Cl)c(/C=N/N3C(=O)/C(=C/Cc4ccco4)N=C3c3ccccc3)cc2c1 | 47.3 |  | > 79.4 | > 100 | > 68.2 | 88.4 | > 100 | > 90.9 | > 93.9 | > 90.9 |  | 
4 | C=CCn1c(=S)sc2c(=O)[nH]cnc21 | > 100 | > 100 | > 100 | > 100 | > 100 | > 100 | > 100 |  |  | > 100 | > 100 | > 100
5 | N#C/C(N)=C(\C#N)N=CNc1ccccc1N | > 100 |  | > 100 | > 100 | > 100 | > 100 | > 100 | > 100 | > 100 | > 100 |  | 
6 | C(=N/Nc1ccccn1)/c1cccnc1 | > 100 |  | > 100 | > 100 | > 100 | > 100 | > 100 | > 100 | > 100 | > 100 |  | 
7 | CO[C@H]1C[C@H](O[C@H]2CC[C@]3(C=O)[C@H]4CC[C@]5(C)[C@@H](C6=CC(=O)OC6)CC[C@]5(O)[C@@H]4CC[C@]3(O)C2)O[C@H](C)[C@H]1O[C@@H]1O[C@H](CO[C@@H]2O[C@H](CO)[C@@H](O)[C@H](O)[C@H]2O)[C@@H](O)[C@H](O)[C@H]1O | 0.0781 |  | 0.188 | > 100 | 0.167 | 0.12 | 0.179 | 0.164 | 0.677 | 0.83 |  | 
8 | O=C(NO)c1ccc(OCc2ccccc2)cc1 | 55.3 |  | > 100 | > 100 | 28.7 | > 100 | > 100 | > 100 | > 100 | > 100 |  | 
9 | O=C(O)C1CCCN1Cc1ccc2c(c1)OCO2 (configuration not stated) | > 100 |  | > 100 | > 100 | > 100 | > 100 | > 100 | > 100 | > 100 | > 100 |  | 
10 | O=C1CCC2(c3ccc(F)cc3)Nc3ncncc3N12 (configuration not stated) | > 10 |  | > 10 | > 10 | > 10 | > 10 | > 10 | > 10 | > 10 | > 10 |  | 
11 | Cc1ccc2cccc(OC(=O)c3cc4c(cc3Cl)Sc3nccn3S4(=O)=O)c2n1 | 43.6 |  | 44.5 | 23.9 | 28.8 | 17.2 | 40.3 | > 78.1 | 18.4 | 46.3 |  | 
12 | CCCCN1C(=O)C[C@H]2[C@@H]3CCc4cc(OCCN5CCCC5)ccc4[C@H]3CC[C@]2(C)C1=O | 9.64 |  | 5.06 | 7.23 | 30.8 | 21.4 | 25.1 | 26.6 | 15.6 | 26.5 |  | 
13 | CC(=O)OCC1OC(OC2CC3C(C)(C)C(=O)CC[C@]3(C)C3CC[C@]45C[C@]4(CCC5[C@@H](C)CC(O)C(O)C(C)(C)O)[C@]23C)C(O)C(O)C1O (some centres not stated) | 26.5 |  | 16.7 | 21.7 | 26.5 | 28.8 | 26 | 25.9 | 16.7 | 23.3 |  | 
14 | CN(CCNC(=O)c1cc(-c2ccccc2)nc2ccccc12)CCNC(=O)c1cc(-c2ccccc2)nc2ccccc12 | 23.5 |  | 4.74 | > 36.7 | > 100 | 21.3 | 24.9 | > 100 | 42 | > 100 |  | 
15 | COc1cc(C2c3cc4c(cc3OC(O)C2C)OCO4)cc(OC)c1O (configuration not stated) | > 100 |  | > 63.3 | > 100 | > 100 | 30.6 | > 100 | > 100 | > 100 | > 46.4 |  | 
16 | CCC(CCCCC1CC[C@H]2CC(=O)C[C@@H]12)OC (some centres not stated) | > 100 |  | > 100 | 66.1 | > 100 | > 100 | > 100 | > 100 | > 100 | > 100 |  | 
17 | O=C(CN1CCCC1)Nc1ccc2sc3ccccc3c(=O)c2n1 | 48.1 |  | > 100 | 46.7 | 52.5 | 35.3 | 33.6 | 70 | > 100 | > 100 |  | 

Row | Structure (SMILES) | TGI (786-0 renal) [µM] | TGI (DMS 273 small cell lung) [µM] | TGI (HT29 colon) [µM] | TGI (K-562 leukemia) [µM] | TGI (OVCAR-8 ovarian) [µM] | TGI (SF-539 CNS) [µM] | TGI (SW-620 colon) [µM] | TGI (BT-549 breast) [µM] | TGI (MCF7 breast) [µM] | TGI (SNB-19 CNS) [µM] | TGI (KM20L2 colon) [µM] | TGI (SNB-78 CNS) [µM]
18 | C/C(=C\[C@H]1C[C@@H]([C@@H]2CC[C@]34C[C@]23C=C[C@@H]2[C@@]3(C)CC=C5C[C@@H](c6ccccc6)OC[C@]5(C)[C@@H]3C[C@@H](O)[C@]24C)C(=O)O1)CO | > 100 |  | 7.85 | > 100 | > 100 | 35.1 | > 100 | 98.6 | > 100 | > 86.7 |  | 
19 | CCCCC/C(=N\c1nc[nH]c1C(N)=O)OCC | > 100 |  | > 100 | > 100 | > 100 | > 100 | > 100 | > 100 | > 100 | > 100 |  | 
20 | CCC(/C=C/c1ccccc1)=N\N=C(\C=C\c1ccccc1)CC | > 100 | > 100 | > 100 | > 100 | > 100 |  | > 100 |  |  | > 100 | > 100 | > 100
21 | CC[C@]12C=CCN3CCC4(c5cc(N=Nc6ccc([N+](=O)[O-])cc6)c(OC)cc5N(C)[C@H]4[C@@](O)(C(=O)OC)[C@@H]1OC(C)=O)[C@@H]32 (some centres not stated) | 25.1 |  | 23.9 | 34.6 | > 100 | 45.8 | > 100 | > 100 | > 100 | > 100 |  | 
22 | CC1(c2nc3cc(Cl)c(Cl)cc3[nH]2)CCC(C(=O)O)C(C)(C)O1 (configuration not stated) | > 100 |  | > 100 | > 100 | > 100 | > 100 | > 100 | > 100 | > 100 | > 100 |  | 
23 | COc1cc(CNC(=O)CCCCCCCCCCSSCCCCCCCCCCC(=O)NCc2ccc(O)c(OC)c2)ccc1O | > 10 |  | > 10 | > 10 | > 10 | > 10 | > 10 | > 10 | > 10 | > 10 |  | 
24 | O=C(CN1C(=O)c2ccccc2C1=O)OCC1CCCN2CCCCC12 (configuration not stated) | > 100 |  | > 100 | > 100 | > 100 | > 100 | > 100 | > 100 | > 100 | > 100 |  | 
25 | CCOC(=O)c1nc2ccc(C(F)(F)F)cc2nc1Nc1ccc(OC)c(OC)c1 | > 100 |  | > 100 | > 100 | > 100 | > 100 | > 100 | > 100 | > 100 | > 100 |  | 
26 | C=C1C(=O)O[C@H]2[C@H]3O[C@@H](C[C@@H]12)[C@](C)(O)CCCC(C)=CCC[C@H]3C | > 100 |  | 26.7 | 64.7 | 21 | 26.9 | 23 | 3.07 | 29.8 | 32.4 |  | 
27 | Nc1nc(Cl)cc(NCC2(CO)CCC(OCc3ccccc3)C2)n1 (configuration not stated) | > 100 |  | 34 | > 100 | > 100 | > 100 | > 100 | 80.1 | 89.1 | > 100 |  | 
28 | CC(C)(Cc1ccccc1)Cc1cc(O)ccc1O | 29 |  | 48.5 | 44.2 | 40.7 | 27.1 | 49.6 | 74.1 | 86.5 | 48.7 |  | 
29 | CN(C)N1C(=O)CC2(CCN(CCCC(=O)c3ccc(F)cc3)CC2)C1=O | > 100 |  | > 100 | > 100 | > 100 | > 100 | > 100 | > 100 | > 100 | > 100 |  | 
30 | CCOC(=O)c1cc(Cl)ccc1OC(N)=O |  | > 100 | > 100 | > 100 | > 100 | > 100 | > 100 |  | > 100 | > 100 | > 100 | > 100
31 | Cc1ccc(OCCn2cc(Nc3ccccc3)c(=O)[nH]c2=O)cc1 | > 100 |  | > 100 | > 100 | > 100 | > 100 | > 100 | > 100 | > 100 | > 100 |  | 
32 | CC(=O)OCC(OC(C)=O)C(OC(C)=O)C(OC(C)=O)C(/C=N\Nc1nc2ccccc2c(=O)[nH]1)OC(C)=O (configuration not stated) | > 100 |  | > 100 | > 100 | > 100 | > 100 | > 100 | > 100 | > 100 | > 100 |  | 
33 | N.N.N.N.O=S(=O)([O-])[O-].[Co+3].[OH3+].[OH3+] | > 100 | > 100 | > 100 | > 100 | > 100 | > 100 | > 100 |  |  | > 100 | > 100 | > 100
34 | CC1=C/C(=C(/c2ccc(O)c(C)c2)c2ccccc2C(=O)O)C=CC1=O | 33.7 |  | 42.8 | 44.7 | 36.3 | 35.2 | 39 | 39 | 34.5 | 32.2 |  | 
